# Experimental data: ChEMBL document CHEMBL3045401, “(Naphthalen-1-yloxy)-acetic acid benzylidene/(1-phenyl-ethylidene)-hydrazide derivatives: synthesis, antimicrobial evaluation, and QSAR studies” (Med Chem Res, 2012)
# How the values were obtained:
# [1] = Octanol-water partition coefficient, log P of the compound; assay type: physicochemical
# Aspergillus niger = assay: Antimicrobial activity against Aspergillus niger after 7 days by serial dilution method; assay type: functional
# Candida albicans = assay: Antimicrobial activity against Candida albicans after 2 days by serial dilution method; assay type: functional
# Escherichia coli = assay: Antimicrobial activity against Escherichia coli after 24 hr by serial dilution method; assay type: functional
# Staphylococcus aureus = assay: Antimicrobial activity against Staphylococcus aureus after 24 hr by serial dilution method; assay type: functional
# Bacillus subtilis = assay: Antimicrobial activity against Bacillus subtilis after 24 hr by serial dilution method; assay type: functional
# [2] = Cytotoxicity against HEL assessed as minimum concentration required to cause morphological changes; assay type: cell-based; details: human, HEL cells
# Human betaherpesvirus 5 [3] = assay: Antiviral activity against Human herpesvirus 5 Davis infected human HEL cells assessed as reduction in the virus plaque formation; assay type: functional, organism-based; details: Human betaherpesvirus 5, Davis
# Human betaherpesvirus 5 [4] = assay: Antiviral activity against Human herpesvirus 5 strain AD169 infected human HEL cells assessed as reduction in the virus plaque formation; assay type: functional, organism-based; details: Human betaherpesvirus 5, AD169, HEL
# [5] = Cytotoxicity against HEL; assay type: cell-based; details: human, HEL cells
# Human alphaherpesvirus 3 [6] = assay: Antiviral activity against thymidine kinase-deficient Human herpesvirus 3 infected in HEL cells assessed as inhibition of viral plaque formation; assay type: functional, organism-based; details: Human alphaherpesvirus 3, HEL
# Human alphaherpesvirus 3 [7] = assay: Antiviral activity against thymidine kinase-positive Human herpesvirus 3 infected in HEL cells assessed as inhibition of viral plaque formation; assay type: functional, organism-based; details: Human alphaherpesvirus 3, HEL
# [8] = Cytotoxicity against Homo sapiens (human) MT4 cells after 4 days by MTT assay; assay type: cell-based
# [9] = test system: Human immunodeficiency virus 2; assay: Antiviral activity against Human immunodeficiency virus type 2 (ISOLATE ROD) infected human MT4 cells assessed as inhibition of virus-induced cytopathic effect after 4 days by MTT assay; assay type: functional, organism-based; details: Human immunodeficiency virus 2, ISOLATE ROD, MT4, 96 h
# [10] = test system: Human immunodeficiency virus 1; assay: Antiviral activity against Human immunodeficiency virus 1 IIIB infected human MT4 cells assessed as inhibition of virus-induced cytopathic effect after 4 days by MTT assay; assay type: functional, organism-based; details: MT4, 96 h
Compound,logP [1],-logMIC (Aspergillus niger),-logMIC (Candida albicans),-logMIC (Escherichia coli),-logMIC (Staphylococcus aureus),-logMIC (Bacillus subtilis),MCC [2] [µg/mL],EC50 (Human betaherpesvirus 5 [3]) [µg/mL],EC50 (Human betaherpesvirus 5 [4]) [µg/mL],CC50 [5] [µg/mL],EC50 (Human alphaherpesvirus 3 [6]) [µg/mL],EC50 (Human alphaherpesvirus 3 [7]) [µg/mL],CC50 at 96 h [8] [µg/mL],EC50 [9] [µg/mL],EC50 [10] [µg/mL]
O=C(COc1cccc2ccccc12)N/N=C/c1ccc(O)cc1,3.73,1.11,1.71,1.41,1.71,1.11,20,> 4,> 4,60.6,10.5,9.6,26.5,> 26.5,> 26.5
O=C(COc1cccc2ccccc12)N/N=C/c1cccc([N+](=O)[O-])c1,3.97,0.84,1.45,1.45,1.14,1.14,≥ 20,> 20,> 4,61.2,> 4,> 4,12.1,> 12.1,> 12.1
OC(Cn1cncn1)(Cn1cncn1)c1ccc(F)cc1F [FLUCONAZOLE],,2.64,2.64,,,,,,,,,,,,
C/C(=N\NC(=O)COc1cccc2ccccc12)c1ccc(O)cc1,4.44,1.43,1.43,1.43,1.13,1.13,20,> 4,> 4,11.1,> 0.8,> 4,68.8,> 68.8,> 68.8
O=C(COc1cccc2ccccc12)N/N=C/c1ccccc1O,3.73,1.11,1.41,1.41,1.71,1.11,20,> 4,> 4,3.57,> 0.8,> 0.8,5.19,> 5.19,> 5.19
Nc1nc2c(ncn2COCCO)c(=O)[nH]1 [ACYCLOVIR],,,,,,,> 100,,,120,23,0.44,,,
O=C(COc1cccc2ccccc12)N/N=C/c1ccc(Cl)cc1,4.54,0.53,0.53,0.53,1.43,0.53,100,> 20,> 20,100,> 100,> 100,87.6,> 87.6,> 87.6
C/C(=N\NC(=O)COc1cccc2ccccc12)c1ccc(C#N)cc1Br,3.61,1.53,2.13,1.53,1.23,1.23,20,> 4,> 4,12.7,> 4,> 4,12.1,> 12.1,> 12.1
COc1cc(/C=N/NC(=O)COc2cccc3ccccc23)cc(OC)c1O,3.23,1.48,1.78,1.48,1.18,1.48,100,> 20,> 20,52.8,> 20,16.9,16.3,> 16.3,> 16.3
C/C(=N\NC(=O)COc1cccc2ccccc12)c1ccc(Br)cc1,3.61,0.6,0.6,0.6,0.6,0.9,20,> 4,> 4,15.3,> 4,> 4,77.6,> 77.6,> 77.6
NNC(=O)COc1ccc2ccccc2c1 [2-NAPHTHOXY ACETIC ACID HYDRAZIDE],,0.64,0.64,0.94,0.94,0.64,,,,,,,,,
Cc1cn([C@H]2C[C@H](N=[N+]=[N-])[C@@H](CO)O2)c(=O)[nH]c1=O [ZIDOVUDINE],,,,,,,,,,,,,> 25,,0.002
Nc1nc2c(ncn2COC(CO)CO)c(=O)[nH]1 [GANCICLOVIR],,,,,,,> 100,1.79,2.68,60.5,,,,,
CCn1cc(C(=O)O)c(=O)c2cc(F)c(N3CCNCC3)cc21 [NORFLOXACIN],,,,2.61,2.61,2.61,,,,,,,,,
Cc1ccnc2c1NC(=O)c1cccnc1N2C1CC1 [NEVIRAPINE],,,,,,,,,,,,,> 4,> 4,
O=c1[nH]c(=O)n([C@H]2C[C@H](O)[C@@H](CO)O2)cc1/C=C/Br [BRIVUDINE],,,,,,,> 100,,,173,20,0.0093,,,
Nc1ccn(C[C@@H](CO)OCP(=O)(O)O)c(=O)n1.O.O [CIDOFOVIR],,,,,,,> 100,0.3,0.8,35.4,,,,,
